Test results: US10918731B2, “HSP90 inhibitory peptide conjugate and application thereof in treating tumor” (INSTITUTE OF BASIC MEDICAL SCIENCES, CHINESE ACADEMY OF …, priority 2015, dated 2021)
Ends that are not written are not given here. Peptide text beside a SMILES is read from it.

Key:
tumor cell [1] = assay: Autophagy: autophagosome and expression of autophagy related proteins (Beclin 1, LC3); format: cell-based; conditions: 6 h; for expression of autophagic Beclin1 and LC3, single agent: agent alone
Method: The cells were seeded and cultured. Targeting peptide was diluted with culture medium. Appropriate concentration of DTX was also prepared for the seeded cells. Equivalent culture medium was added as negative control group; 1×10^−9 M targeting peptide solution was added as Peptide group; 10^−9 M DTX was added as DTX group; 10^−9 M targeting peptide and […] were added as combination group (DTX+P). The cells were incubated at 37° C., 5% CO2 for 6 h to analyze the autophagosome. Protein was extracted to measured expression of autophagy related proteins.

HSP90 = assay: Western blotting of HSP90 expression in A549 cells; format: cell-based, human; conditions: 48 h
Method: • (1) lung adenocarcinoma A549 cells were trypsinized and then centrifuged at 800×g for 5 min. The precipitate was re-suspended with PBS and adjusted to 1×10^6 cells/ml. • (2) the cells were seeded into 6-well plate and 2 ml culture medium was added. Then the cells were incubated at 37° C., 5% CO2 overnight. • (3) The peptide was diluted with medium and 300 μl solution was added to each well with a final concentration of 1×10^−4 M. Equal volume of medium was added to the negative well. Triple wells were set for each group and experiment was repeated three times. The plate was incubated at 37° C., 5% CO2 for 48 h. Protein was extracted and subjected to Western blotting analysis.

tumor cell [2] = assay: Apoptosis by Annexin V method and Western blotting of apoptosis related proteins; format: cell-based
Method: The cells were seeded and cultured. Targeting peptide was diluted with culture medium. Appropriate concentration of DTX was also prepared for the seeded cells. Equivalent culture medium was added as negative control group, 1×10^−9 M targeting peptide solution added as Peptide group, 10^−9 M DTX added as DTX group, 10^−9 M targeting peptide and […] added as combination group (DTX+P). The cells were incubated at 37° C., 5% CO2 for 6 h to analyze the apoptosis by Annexin V method. The protein was extracted to measure the expression of apoptosis related proteins.

A549 cell xenograft = assay: Human non-small cell lung cancer A549 xenograft nude mice model, tumor growth; format: in vivo, BALB/c nu/nu female nude mice; conditions: 10 mg/kg based on DTX, intraperitoneal, once a week, four injections
Method: A549 cell, a non-small cell lung cancer cell line, growing in logarithmic phase were collected and gently pipetted with 1 ml F-12K media containing […] to prepare the single cell suspension, which was consequently counted with appropriate dilution. The cell suspension was mixed with Matrigel (1:3) under ice bath. The concentration of the cell suspension was adjusted to 8×10^6 cells/ml and stored at 0° C. before transplantation.
Thirty BALB/c nu/nu female nude mice (16 g) were acclimated to the environment for 1 week before the formal experiment. […]
The mice were frequently observed and tumor volume was measured with a Vernier caliper, the volume was calculated by the equation (long diameter×short diameter^2) (½), when tumor reaching a size of 100 mm^3, mice were divided into 4 groups: (1) Saline (control), (2) DTX, (3) TN-DTX and (4) DTX-P7.
Next day after animal grouping, agents were administrated via intraperitoneal injection once a week for a total of four injections. The first administrated day was recorded as Day 0 and the other administrated days were respectively recorded as Day 7, Day 14, Day 21. […]
The mice were measured and weighted every two times a week. Tumor dimensions were measured using calipers. […]

[3] = system: Lung adenocarcinoma A549 cells; assay: CCK-8 cytotoxicity, lung adenocarcinoma A549 cells; format: cell-based; conditions: human, 48 h
Method: (§1) Lung adenocarcinoma A549, breast cancer MCF-7S and melanoma A375 cells were diluted respectively to 3×10^4 cells/ml and pipetted to 96-well plate with 100 μl in each well. Twenty-four hours later, 5, 20, 80 or 320 nM DTX-P7, Paclitaxel-heptapeptide conjugate (PTX-P7), Doxorubicin-NH2-heptapeptide conjugate (DOX-P7) and Doxorubicin-OH-heptapeptide conjugate (DOX-OH-P7) were added to the wells and incubated for 48 h. Then 10 μl CCK-8 was added and measured 1.5 h later at 450 nm to calculate the viability and median inhibitory concentration IC50.

melanoma A375 cells = assay: CCK-8 cytotoxicity, melanoma A375 cells; format: cell-based; conditions: human, 48 h
Method: as §1

[4] = system: breast cancer MCF-7S cells; assay: CCK-8 cytotoxicity, breast cancer MCF-7S cells; format: cell-based; conditions: human, 48 h
Method: as §1

Compound	expression of autophagic Beclin1 and LC3, single agent (tumor cell [1])	Beclin1 expression and conversion of LC3-I to LC3-II, DTX and targeting peptide simultaneously added (tumor cell [1]; combination group (DTX+P), compared with DTX treatment only)	expression of HSP90 (HSP90)	apoptosis (Annexin V), peptide alone (tumor cell [2]; 6 h, 1×10^−9 M targeting peptide)	apoptosis (Annexin V), peptide combined with DTX (tumor cell [2]; 6 h, combination group (DTX+P))	caspase-3 cleavage, peptide alone (tumor cell [2]; Western blotting)	caspase-3 cleavage, peptide combined with DTX (tumor cell [2]; Western blotting, compared with DTX alone)	effect on tumor growth (A549 cell xenograft)	IC50 [3] [nM]	IC50 (melanoma A375 cells) [nM]	IC50 [4] [nM]
LPLTPLP (SEQ ID No: 1) [targeting peptide]	did not affect the expression of these proteins	significantly inhibited the autophagy induced by DTX	effectively down regulated the expression of HSP90 in a dose-dependent manner	induced apoptosis	further promoted apoptosis when combined with DTX	induce caspase-3 cleavage	the cleavage was further enhanced when combined with DTX compared with DTX alone	–	–	–	–
CC(=O)O[C@@]12CO[C@@H]1C[C@H](O)[C@@]1(C)C(=O)[C@H](O)C3=C(C)[C@@H](OC(=O)[C@H](O)[C@@H](NC(=O)OC(C)(C)C)c4ccccc4)C[C@@](O)([C@@H](OC(=O)c4ccccc4)[C@H]21)C3(C)C [DTX, Docetaxel, reference compound]	enhanced the expression the Beclin 1 and conversion of LC3-I to LC3-II	–	–	–	–	–	–	obvious inhibitory effects on the tumor growth	–	–	–
COc1ccc2c(c1)C(=O)c1c(O)c3c(c(O)c1C2=O)C[C@@](O)(C(=O)COC(=O)CCC(=O)N[C@@H](CC(C)C)C(=O)N1CCC[C@H]1C(=O)N[C@@H](CC(C)C)C(=O)N[C@H](C(=O)N1CCC[C@H]1C(=O)N[C@@H](CC(C)C)C(=O)N1CCC[C@H]1C(=O)O)[C@@H](C)O)C[C@@H]3OC1CC(N)C(O)C(C)O1 (stereo partly drawn) [DOX-OH-P7] (HELM PEPTIDE1{[COc1ccc2c(c1)C(=O)c1c(O)c3c(c(O)c1C2=O)C[C@@](O)(C(=O)COC(=O)CCC(=O)[*:2])C[C@@H]3OC1CC(N)C(O)C(C)O1].L.P.L.T.P.L.P}$$$$V2.0)	–	–	–	–	–	–	–	–	6.2	28.4	18.1
